Patent publication US7709223B2, “Method for detecting bacteria with chromogenic substrates for β-D-ribofuranosidase” (priority 2001, dated 2010)
Structures can show the parent of a compound that is named as a salt.

Tests used:
Assay in all cases: Hydrolysis on Columbia agar with ferric ammonium citrate
Assay type in all cases: cell-based
[1] = tested on: Streptococcus vestibularis; conditions: Streptococcus vestibularis NCTC 12166
Procedure: (§1) The chromogenic β-D-ribofuranoside substrate was added to Columbia agar at a substrate concentration of 300 mg/l. Ferric ammonium citrate was included at 500 mg/l. All ingredients were autoclaved at 116° C. for 20 minutes to ensure sterilisation. Agar plates were then prepared in 90 mm petri dishes. The substrate caused a yellow colouration of the agar.
(§2) For each strain tested, a bacterial suspension was prepared in sterile deionised water at an inoculum of approximately 1.5×10^8 colony forming units per ml. This was achieved using a densitometer. 1 μl of each bacterial suspension was then inoculated onto each plate using a multipoint inoculator. Strains were inoculated in parallel onto Columbia agar containing ferric ammonium citrate with no substrate (negative control).
(§3) After 18 hours incubation, strains were examined visually for the presence of colour. Any strains producing a black colouration on substrate containing media but not on the negative control plates were deemed to be hydrolysing the substrate.

Enterococcus faecalis = tested on: Enterococcus faecalis
Procedure: as §1, §2, §3

[2] = tested on: Haemolytic streptococcus B
Procedure: as §1, §2, §3

E. cloacae = tested on: E. cloacae; set-up: key to the marks not given beside the values
Procedure: as §1, §2, §3

Staphylococcus aureus = tested on: Staphylococcus aureus; set-up: key to the marks not given beside the values
Procedure: as §1, §2, §3

Serratia marcescens = tested on: Serratia marcescens; set-up: key to the marks not given beside the values; conditions: Serratia marcescens NCTC 10211
Procedure: as §1, §2, §3

C. diversus = tested on: C. diversus; set-up: key to the marks not given beside the values
Procedure: as §1, §2, §3

Vibrio fluvialis = tested on: Vibrio fluvialis; set-up: key to the marks not given beside the values; conditions: Vibrio fluvialis NCTC 11327
Procedure: as §1, §2, §3

K. oxytoca = tested on: K. oxytoca; set-up: key to the marks not given beside the values
Procedure: as §1, §2, §3

C. freundii = tested on: C. freundii; set-up: key to the marks not given beside the values
Procedure: as §1, §2, §3

Salmonella oranienburg = tested on: Salmonella oranienburg; set-up: key to the marks not given beside the values; conditions: Salmonella oranienburg SAX 56
Procedure: as §1, §2, §3

Aeromonas hydrophila = tested on: Aeromonas hydrophila; set-up: key to the marks not given beside the values; conditions: Aeromonas hydrophila NCTC 8049
Procedure: as §1, §2, §3

[3] = tested on: Staphylococcus saprophyticus; set-up: key to the marks not given beside the values
Procedure: as §1, §2, §3

Salmonella alachia = tested on: Salmonella alachia; set-up: key to the marks not given beside the values; conditions: Salmonella alachia SAX 60
Procedure: as §1, §2, §3

Salmonella orthmarchen = tested on: Salmonella orthmarchen; set-up: key to the marks not given beside the values; conditions: Salmonella orthmarchen SAX 59
Procedure: as §1, §2, §3

Hafnia alvei = tested on: Hafnia alvei; set-up: key to the marks not given beside the values
Procedure: as §1, §2, §3

Aeromonas sobria = tested on: Aeromonas sobria; set-up: key to the marks not given beside the values; conditions: Aeromonas sobria NCTC 11215
Procedure: as §1, §2, §3

Vibrio metschnikovii = tested on: Vibrio metschnikovii; set-up: key to the marks not given beside the values; conditions: Vibrio metschnikovii NCTC 8443
Procedure: as §1, §2, §3

Aeromonas caviae = tested on: Aeromonas caviae; set-up: key to the marks not given beside the values; conditions: Aeromonas caviae NCTC 10852
Procedure: as §1, §2, §3

Salmonella motevideo = tested on: Salmonella motevideo; set-up: key to the marks not given beside the values; conditions: Salmonella motevideo SAX 55
Procedure: as §1, §2, §3

Salmonella typhi = tested on: Salmonella typhi; set-up: key to the marks not given beside the values; conditions: Salmonella typhi NCTC 8385
Procedure: as §1, §2, §3

Serratia spp. = tested on: Serratia spp.; set-up: key to the marks not given beside the values
Procedure: as §1, §2, §3

Vibrio harveyi = tested on: Vibrio harveyi; set-up: key to the marks not given beside the values; conditions: Vibrio harveyi NCTC 11346
Procedure: as §1, §2, §3

Shigella flexneri = tested on: Shigella flexneri; set-up: key to the marks not given beside the values
Procedure: as §1, §2, §3

Salmonella panama = tested on: Salmonella panama; set-up: key to the marks not given beside the values; conditions: Salmonella panama SAX 58
Procedure: as §1, §2, §3

Shigella dysenteriae = tested on: Shigella dysenteriae; set-up: key to the marks not given beside the values
Procedure: as §1, §2, §3

Salmonella typhimurium = tested on: Salmonella typhimurium; set-up: key to the marks not given beside the values; conditions: Salmonella typhimurium NCTC 74
Procedure: as §1, §2, §3

Salmonella hadar = tested on: Salmonella hadar; set-up: key to the marks not given beside the values; conditions: Salmonella hadar SAX 57
Procedure: as §1, §2, §3

Shigella boydii = tested on: Shigella boydii; set-up: key to the marks not given beside the values
Procedure: as §1, §2, §3

O=c1cc(-c2ccc(OC3OC(CO)C(O)C3O)c(O)c2)oc2ccccc12 [DHF-riboside, 3′,4′-Dihydroxyflavone-4′-β-D-ribofuranoside sodium salt]
β-Ribofuranoside (hydrolysis) [1]: −
β-Ribofuranoside (hydrolysis) (Enterococcus faecalis; Reference No. 1): −
β-Ribofuranoside (hydrolysis) (Enterococcus faecalis; Reference No. 2): +
β-Ribofuranoside (hydrolysis) (Enterococcus faecalis; Reference No. 3): +
β-Ribofuranoside (hydrolysis) (Enterococcus faecalis; Reference No. 4): +
β-Ribofuranoside (hydrolysis) (Enterococcus faecalis; Reference No. 5): +
β-Ribofuranoside (hydrolysis) (Enterococcus faecalis; Reference No. 6): +
β-Ribofuranoside (hydrolysis) (Enterococcus faecalis; Reference No. 7): −
β-Ribofuranoside (hydrolysis) ([2]; Reference No. 1): −
β-Ribofuranoside (hydrolysis) ([2]; Reference No. 2): −
β-Ribofuranoside (hydrolysis) ([2]; Reference No. 3): −
β-Riboside (hydrolysis) (E. cloacae; E. cloacae ECL 1): ++
β-Riboside (hydrolysis) (E. cloacae; E. cloacae ECL 2): ++
β-Riboside (hydrolysis) (E. cloacae; E. cloacae ECL 3): ++
β-Riboside (hydrolysis) (E. cloacae; E. cloacae ECL 4): ++
β-Riboside (hydrolysis) (E. cloacae; E. cloacae NCTC 11936): ++
β-Ribofuranoside (hydrolysis) (Staphylococcus aureus; Reference No. 1): ++
β-Ribofuranoside (hydrolysis) (Staphylococcus aureus; Reference No. 2): ++
β-Ribofuranoside (hydrolysis) (Staphylococcus aureus; Reference No. 3): ++
β-Ribofuranoside (hydrolysis) (Staphylococcus aureus; Reference No. 4): ++
β-Ribofuranoside (hydrolysis) (Staphylococcus aureus; Reference No. 5): ++
β-Riboside (hydrolysis) (Serratia marcescens): ++
β-Riboside (hydrolysis) (C. diversus; C. diversus CDI 1): ++
β-Riboside (hydrolysis) (C. diversus; C. diversus CDI 2): ++
β-Riboside (hydrolysis) (Vibrio fluvialis): ++
β-Riboside (hydrolysis) (K. oxytoca; K. oxytoca KOX 1): ++
β-Riboside (hydrolysis) (K. oxytoca; K. oxytoca KOX 2): ++
β-Riboside (hydrolysis) (C. freundii; C. freundii CFR 1): ++
β-Riboside (hydrolysis) (C. freundii; C. freundii CFR 2): ++
β-Riboside (hydrolysis) (C. freundii; C. freundii CFR 3): ++
β-Riboside (hydrolysis) (C. freundii; C. freundii CFR 4): ++
β-Riboside (hydrolysis) (C. freundii; C. freundii NCTC 9750): ++
β-Riboside (hydrolysis) (Salmonella oranienburg): ++
β-Riboside (hydrolysis) (Aeromonas hydrophila): ++
β-Ribofuranoside (hydrolysis) ([3]; Reference No. 1): ++
β-Ribofuranoside (hydrolysis) ([3]; Reference No. 2): ++
β-Ribofuranoside (hydrolysis) ([3]; Reference No. 3): ++
β-Ribofuranoside (hydrolysis) ([3]; Reference No. 4): ++
β-Ribofuranoside (hydrolysis) ([3]; Reference No. 5): ++
β-Riboside (hydrolysis) (Salmonella alachia): ++
β-Riboside (hydrolysis) (Salmonella orthmarchen): ++
β-Riboside (hydrolysis) (Hafnia alvei; Hafnia alvei HAL 2): ++
β-Riboside (hydrolysis) (Hafnia alvei; Hafnia alvei NCTC 8105): ++
β-Riboside (hydrolysis) (Aeromonas sobria): ++
β-Riboside (hydrolysis) (Vibrio metschnikovii): ++
β-Riboside (hydrolysis) (Aeromonas caviae): ++
β-Riboside (hydrolysis) (Salmonella motevideo): ++
β-Riboside (hydrolysis) (Salmonella typhi): ++
β-Riboside (hydrolysis) (Serratia spp.; Serratia spp. SEX 1): ++
β-Riboside (hydrolysis) (Serratia spp.; Serratia spp. SEX 2): ++
β-Riboside (hydrolysis) (Serratia spp.; Serratia spp. SEX 3): ++
β-Riboside (hydrolysis) (Serratia spp.; Serratia spp. SEX 4): ++
β-Riboside (hydrolysis) (Vibrio harveyi): ++
β-Riboside (hydrolysis) (Shigella flexneri; Shigella flexneri NCTC 8192): ++
β-Riboside (hydrolysis) (Shigella flexneri; Shigella flexneri NCTC 9723): ++
β-Riboside (hydrolysis) (Shigella flexneri; Shigella flexneri NCTC 9780): ++
β-Riboside (hydrolysis) (Salmonella panama): ++
β-Riboside (hydrolysis) (Shigella dysenteriae; Shigella dysenteriae (type 2) NCTC 9952): ++
β-Riboside (hydrolysis) (Shigella dysenteriae; Shigella dysenteriae (type 3) NCTC 9720): ++
β-Riboside (hydrolysis) (Shigella dysenteriae; Shigella dysenteriae (type 4) NCTC 9759): ++
β-Riboside (hydrolysis) (Salmonella typhimurium): ++
β-Riboside (hydrolysis) (Salmonella hadar): ++
β-Riboside (hydrolysis) (Shigella boydii; Shigella boydii NCTC 9327): ++
β-Riboside (hydrolysis) (Shigella boydii; Shigella boydii NCTC 9732): ++
β-Riboside (hydrolysis) (Shigella boydii; Shigella boydii NCTC 9850): ++
